{"source": "patent US5968933A", "about": "“DNA-targeted alkylating agents” (Auckland Division Cancer Society of New Zealand Inc., priority 1994, dated 1999)", "test_system": "P388 cells", "assay": "Growth inhibition in vitro, P388 leukaemia", "assay_type": "cell-based, murine", "description": "Representative examples of compounds of the invention were tested for biological activity against tumors. Compounds 1 to 6 and 14 to 21, prepared as described above, were tested for their ability to inhibit growth in vitro of cells of the wild-type murine leukaemia cell line P388, and the cell line AA8 which is derived from Chinese hamster ovary cells. For each compound, the IC50, ie. the concentration of compound which inhibited cell growth in treated cultures to 50% of that of controls, was determined, using means of three determinations. In addition, a hypersensitivity factor was determined by comparing activity of the compounds against AA8 cells to activity against UV4. The latter cell line is deficient in aspects of the excision repair pathway for removing DNA adducts, and is hypersensitive to DNA-alkylating agents, especially interstrand crosslinking agents. Previous work has shown that the ratio of IC50 s determined in the wild-type AA8 and mutant UV4 lines (the hypersensitivity factor HF) is a determinant of the mode of cell killing by alkylating agents (Palmer, B. D. et al, J. Med. Chem., 1990 33 112-121; Wilson, W. R. et al, J. Med. Chem., 1989 32 31-38). Compounds with HFs of ca. 1 are unlikely to kill cells via DNA alkylation events. Compounds which show high HF values are likely to form bulky adducts or cross-links,with the latter being especially likely for compounds showing the highest HF values (>ca. 25) (Wilson et al, op. cit.).\nCell lines were maintained in exponential growth phase by subculturing in RPMI 1640 (P338) or Alpha MEM (AA8, UV4) containing 10% fetal calf serum, as previously described (Palmer et al, op.cit.; Baguley, B. C. and Wilson, W. R., Eur. J. Cancer Clin. Oncol., 1987 23 607-613). IC50 values were determined using log-phase cultures in 96-well microculture plates, and were calculated as the nominal drug concentration required to reduce the cell density to 50% of control values, using 8 control cultures on each microplate. For P388 cultures, drug was present throughout the growth period (72 h), and final cell densities were determined using a minor modification of the MTT method of Mossman (Mossman, T., J. Immunol. Methods, 1983 65 55-63). For AA8 and UV4 cultures, drug exposure was terminated after 18 h by washing three times with fresh medium. Cultures were then grown for a further 72 h before determining cell density by staining with methylene blue (Finlay, G. J. et al, Anal. Biochem., 1984 139 272-277).", "key": {"[1]": {"conditions": "P388 cells, 72 h, MTT, read-out: IC50"}}, "note": "Like-named read-outs stand apart in the source and are kept apart here."}
{"compound": "CCN(CCCl)c1ccc(CCCCCCc2nc3ccc(-c4nc5ccc(N6CCN(C)CC6)cc5[nH]4)cc3[nH]2)cc1", "note": "[Compound 16, 2-[2-[6-[4-(N-ethyl-N-(2-chloroethyl)amino)phenyl]hexyl]-5-benzimidazolyl]-5-(1-methyl-4-piperazinyl)benzimidazole]", "values": [{"measurement": "IC50", "setting": "Mus musculus, P388, 72 h", "value": 370, "unit": "nM"}]}
{"compound": "CCN(CCCl)c1ccc(Cc2nc3ccc(-c4nc5ccc(N6CCN(C)CC6)cc5[nH]4)cc3[nH]2)cc1", "note": "[Compound 17, 2-[2-[[4-(N-ethyl-N-(2-chloroethyl)amino)phenyl]methyl]-5-benzimidazoyl]-5-(1-methyl-4-piperazinyl)benzimidazole]", "values": [{"measurement": "IC50", "setting": "Mus musculus, P388, 72 h", "value": 90, "unit": "nM"}]}
{"compound": "CN1CCN(c2ccc3nc(-c4ccc5nc(CCCc6cccc(N(CCCl)CCCl)c6)[nH]c5c4)[nH]c3c2)CC1", "note": "[Compound 18]", "values": [{"measurement": "IC50", "setting": "[1]", "value": "> 1000", "unit": "nM"}]}
{"compound": "CCN(CCCl)c1cccc(CCCc2nc3ccc(-c4nc5ccc(N6CCN(C)CC6)cc5[nH]4)cc3[nH]2)c1", "note": "[Compound 19, 2-[2-[3-[3-(N-ethyl-N-(2-chloroethyl)amino)phenyl]propyl]-5-benzimidazolyl]-5-(1-methyl-4-piperazinyl)-benzimidazole]", "values": [{"measurement": "IC50", "setting": "Mus musculus, P388, 72 h", "value": "< 60", "unit": "nM"}]}
{"compound": "CN1CCN(c2ccc3nc(-c4ccc5nc(CCCc6ccccc6N(CCCl)CCCl)[nH]c5c4)[nH]c3c2)CC1", "note": "[Compound 20]", "values": [{"measurement": "IC50", "setting": "[1]", "value": 610, "unit": "nM"}]}
{"compound": "CCN(CCCl)c1ccccc1CCCc1nc2ccc(-c3nc4ccc(N5CCN(C)CC5)cc4[nH]3)cc2[nH]1", "note": "[Compound 21, 2-[2-[3-[2-(N-ethyl-N-(2chloroethyl)amino)phenyl]propyl]-5-benzimidazolyl]-5-(1-methyl-4-piperazinyl)-benzimidazole]", "values": [{"measurement": "IC50", "setting": "Mus musculus, P388, 72 h", "value": "< 60", "unit": "nM"}]}
